This is an account of results in ChEMBL document CHEMBL4028875, “Design of Leucine-Rich Repeat Kinase 2 (LRRK2) Inhibitors Using a Crystallographic Surrogate Derived from Checkpoint Kinase 1 (CHK1)” (J Med Chem, 2017).

Active and inactive are the calls of the source. No cut-off for these calls is given here.

In experiment [1] the target is Non-receptor tyrosine-protein kinase TYK2 (Homo sapiens) (UniProt P29597). Kind of experiment: Inhibition of recombinant human TYK2 JH1 catalytic domain (887 to 1187 residues) expressed in mammalian expression system at 1 uM by KINOMEScan assay relative to control.
The target of experiment [2] is T1, Serine/threonine-protein kinase D2 (Homo sapiens) (UniProt Q9BZL6).
T1 sequence (whole entry): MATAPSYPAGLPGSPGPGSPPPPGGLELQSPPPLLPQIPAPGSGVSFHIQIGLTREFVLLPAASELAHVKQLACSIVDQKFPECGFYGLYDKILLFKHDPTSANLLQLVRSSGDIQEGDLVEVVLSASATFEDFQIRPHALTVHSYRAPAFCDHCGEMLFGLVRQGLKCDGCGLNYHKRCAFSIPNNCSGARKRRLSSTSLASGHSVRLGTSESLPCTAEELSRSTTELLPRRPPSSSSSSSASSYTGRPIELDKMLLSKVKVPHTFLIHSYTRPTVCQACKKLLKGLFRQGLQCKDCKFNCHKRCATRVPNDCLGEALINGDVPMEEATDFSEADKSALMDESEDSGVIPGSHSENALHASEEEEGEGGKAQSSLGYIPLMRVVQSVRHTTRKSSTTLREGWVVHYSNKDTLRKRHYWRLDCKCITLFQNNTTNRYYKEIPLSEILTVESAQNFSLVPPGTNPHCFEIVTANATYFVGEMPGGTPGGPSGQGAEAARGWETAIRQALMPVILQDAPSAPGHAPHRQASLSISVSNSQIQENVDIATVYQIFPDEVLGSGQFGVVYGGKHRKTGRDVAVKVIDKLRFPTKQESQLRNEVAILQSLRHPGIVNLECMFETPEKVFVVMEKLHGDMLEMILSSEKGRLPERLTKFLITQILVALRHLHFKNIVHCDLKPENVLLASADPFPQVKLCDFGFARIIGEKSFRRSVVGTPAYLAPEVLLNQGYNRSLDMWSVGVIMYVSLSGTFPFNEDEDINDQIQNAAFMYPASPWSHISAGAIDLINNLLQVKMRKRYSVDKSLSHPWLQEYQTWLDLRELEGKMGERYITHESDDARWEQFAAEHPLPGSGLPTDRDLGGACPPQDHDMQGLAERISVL
Kind of experiment: Inhibition of PKD2 in human PBMC at 1 uM.

Experiment [3] addresses T2, Serine/threonine-protein kinase D3 (Homo sapiens) (UniProt O94806).
T2 sequence (whole entry): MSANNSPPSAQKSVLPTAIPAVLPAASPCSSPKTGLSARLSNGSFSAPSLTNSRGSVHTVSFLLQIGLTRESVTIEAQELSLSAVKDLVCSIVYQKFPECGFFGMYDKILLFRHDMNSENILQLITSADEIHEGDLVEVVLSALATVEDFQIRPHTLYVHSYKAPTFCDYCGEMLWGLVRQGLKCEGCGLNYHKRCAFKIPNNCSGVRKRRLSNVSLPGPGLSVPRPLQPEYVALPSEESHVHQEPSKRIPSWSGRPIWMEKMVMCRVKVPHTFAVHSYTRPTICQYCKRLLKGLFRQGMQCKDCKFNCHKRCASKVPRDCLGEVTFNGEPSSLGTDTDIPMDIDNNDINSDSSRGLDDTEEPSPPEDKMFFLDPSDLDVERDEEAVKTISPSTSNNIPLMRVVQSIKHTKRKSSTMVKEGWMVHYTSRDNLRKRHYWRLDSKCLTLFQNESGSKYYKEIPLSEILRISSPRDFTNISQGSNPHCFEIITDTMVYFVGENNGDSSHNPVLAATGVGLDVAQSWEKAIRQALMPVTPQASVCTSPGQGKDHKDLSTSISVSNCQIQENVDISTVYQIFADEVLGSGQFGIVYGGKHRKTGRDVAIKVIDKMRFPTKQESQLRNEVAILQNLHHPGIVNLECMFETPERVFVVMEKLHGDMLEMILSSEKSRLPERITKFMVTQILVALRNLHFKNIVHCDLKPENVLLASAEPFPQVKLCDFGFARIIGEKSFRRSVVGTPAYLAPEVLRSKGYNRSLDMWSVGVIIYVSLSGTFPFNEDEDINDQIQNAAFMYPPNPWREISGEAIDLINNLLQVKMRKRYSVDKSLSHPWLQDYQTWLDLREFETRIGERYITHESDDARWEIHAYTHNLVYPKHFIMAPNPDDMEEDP
Put plainly: Inhibition of PKD3 in human PBMC at 1 uM.

In experiment [4] the target is T3, Adenosine receptor A3 (Homo sapiens) (UniProt P0DMS8).
T3 sequence (whole entry): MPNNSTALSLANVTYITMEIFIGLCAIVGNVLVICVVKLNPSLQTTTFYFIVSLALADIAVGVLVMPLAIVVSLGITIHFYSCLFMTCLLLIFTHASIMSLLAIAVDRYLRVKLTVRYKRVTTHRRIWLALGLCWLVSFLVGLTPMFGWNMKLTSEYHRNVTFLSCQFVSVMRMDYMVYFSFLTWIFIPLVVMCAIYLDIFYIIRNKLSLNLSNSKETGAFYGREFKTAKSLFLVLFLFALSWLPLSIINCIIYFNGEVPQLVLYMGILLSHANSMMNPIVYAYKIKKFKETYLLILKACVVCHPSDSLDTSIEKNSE
Put plainly: Displacement of [125I] AB-MECA from recombinant human adenosine A3 receptor expressed in CHOK1 cell membranes up to 10 uM after 120 mins by scintillation counting method.

The target in experiment [5] is 5-hydroxytryptamine receptor 2B (Homo sapiens) (UniProt P41595). Put plainly: Displacement of [125I](+/-)DOI from recombinant human 5-HT2B receptor expressed in CHOK1 cell membranes up to 10 uM after 60 mins by scintillation counting method.
The target of experiment [6] is T3, Adenosine receptor A3 (Homo sapiens). Put plainly: Agonist activity at recombinant human adenosine A3 receptor expressed in CHOK1 cells assessed as induction of cAMP accumulation up to 10 uM after 20 mins by HTRF assay. It counts as functional, cell-based. For orientation: Changes in cAMP serve as a functional read-out for many G protein-coupled receptors.
Experiment [7] addresses Adenosine receptor A2a (Homo sapiens) (UniProt P29274). Put plainly: Antagonist activity at recombinant human adenosine A2A receptor expressed in HEK293 cells up to 10 uM. It counts as cell-based.

Adenosine receptor A2a (Homo sapiens), sequence (P29274 whole entry): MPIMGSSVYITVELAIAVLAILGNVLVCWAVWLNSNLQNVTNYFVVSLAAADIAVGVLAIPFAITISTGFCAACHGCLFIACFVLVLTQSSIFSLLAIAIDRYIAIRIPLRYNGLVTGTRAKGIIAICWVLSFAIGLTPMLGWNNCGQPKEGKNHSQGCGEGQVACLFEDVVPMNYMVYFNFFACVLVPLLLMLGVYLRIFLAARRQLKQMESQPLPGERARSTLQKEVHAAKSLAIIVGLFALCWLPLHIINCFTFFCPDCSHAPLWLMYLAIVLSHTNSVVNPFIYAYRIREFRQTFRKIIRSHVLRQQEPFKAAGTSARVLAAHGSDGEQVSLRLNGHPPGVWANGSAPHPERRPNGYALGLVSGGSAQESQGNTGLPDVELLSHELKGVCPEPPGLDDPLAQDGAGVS
5-hydroxytryptamine receptor 2B (Homo sapiens), sequence (P41595 whole entry): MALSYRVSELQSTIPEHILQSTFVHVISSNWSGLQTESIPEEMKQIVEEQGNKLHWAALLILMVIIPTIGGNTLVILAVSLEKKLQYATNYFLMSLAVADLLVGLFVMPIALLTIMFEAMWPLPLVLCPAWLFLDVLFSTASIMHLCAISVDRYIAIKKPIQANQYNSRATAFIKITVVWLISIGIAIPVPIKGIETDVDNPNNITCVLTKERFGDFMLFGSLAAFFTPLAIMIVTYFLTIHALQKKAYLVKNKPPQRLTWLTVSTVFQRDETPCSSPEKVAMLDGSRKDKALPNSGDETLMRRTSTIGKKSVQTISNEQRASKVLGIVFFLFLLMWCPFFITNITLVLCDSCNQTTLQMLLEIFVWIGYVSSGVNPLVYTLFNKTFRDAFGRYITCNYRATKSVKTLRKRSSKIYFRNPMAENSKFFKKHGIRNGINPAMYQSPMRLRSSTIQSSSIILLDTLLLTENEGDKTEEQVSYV
Non-receptor tyrosine-protein kinase TYK2 (Homo sapiens), sequence (P29597 whole entry, the tested form may be a part): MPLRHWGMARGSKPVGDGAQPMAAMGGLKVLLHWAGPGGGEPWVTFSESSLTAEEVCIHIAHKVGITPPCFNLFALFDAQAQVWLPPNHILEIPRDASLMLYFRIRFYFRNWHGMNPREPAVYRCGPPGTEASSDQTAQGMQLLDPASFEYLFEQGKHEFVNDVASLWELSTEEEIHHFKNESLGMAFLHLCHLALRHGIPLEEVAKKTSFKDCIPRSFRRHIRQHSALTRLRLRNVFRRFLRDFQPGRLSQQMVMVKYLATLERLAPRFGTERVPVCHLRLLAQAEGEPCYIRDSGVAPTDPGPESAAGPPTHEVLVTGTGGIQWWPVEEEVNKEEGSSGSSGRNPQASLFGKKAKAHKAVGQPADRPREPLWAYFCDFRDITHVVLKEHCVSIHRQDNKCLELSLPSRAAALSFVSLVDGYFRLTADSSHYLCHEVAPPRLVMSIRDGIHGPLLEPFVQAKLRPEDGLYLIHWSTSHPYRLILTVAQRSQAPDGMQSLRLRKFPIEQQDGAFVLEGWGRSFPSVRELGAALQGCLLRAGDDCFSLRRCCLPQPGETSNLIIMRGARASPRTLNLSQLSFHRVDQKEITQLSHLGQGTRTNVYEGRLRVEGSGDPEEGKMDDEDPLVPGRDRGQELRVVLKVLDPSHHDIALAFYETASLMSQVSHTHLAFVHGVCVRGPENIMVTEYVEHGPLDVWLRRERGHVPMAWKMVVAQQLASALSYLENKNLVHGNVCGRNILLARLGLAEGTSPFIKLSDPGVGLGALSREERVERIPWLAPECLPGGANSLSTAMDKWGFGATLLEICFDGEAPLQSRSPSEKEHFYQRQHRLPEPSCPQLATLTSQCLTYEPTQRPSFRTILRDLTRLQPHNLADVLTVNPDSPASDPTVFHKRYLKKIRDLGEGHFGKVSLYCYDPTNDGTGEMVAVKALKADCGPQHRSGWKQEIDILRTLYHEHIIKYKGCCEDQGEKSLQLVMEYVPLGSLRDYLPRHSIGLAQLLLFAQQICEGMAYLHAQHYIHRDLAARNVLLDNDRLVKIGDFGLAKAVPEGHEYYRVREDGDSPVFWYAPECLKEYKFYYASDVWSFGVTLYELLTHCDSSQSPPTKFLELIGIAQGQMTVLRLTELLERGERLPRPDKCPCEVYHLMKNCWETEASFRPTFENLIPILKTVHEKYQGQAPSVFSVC

Turning to `Cc1cccc(-c2cc(N)nc3[nH]cc(C#N)c23)c1`, the inhibition in experiment [1] was > 95%; in experiment [2], > 35%; in experiment [3] it was > 35%. Besides, the inhibition entry in experiment [4] and in experiment [5] was “Active” in each case. Moreover, the result in experiment [6] was inactive. Also, the inhibition result in experiment [7] was “inactive”.

The term inhibition denotes the percentage by which the read-out fell short of the control.
